Series [1] in a line: DPPH antioxidant (radical scavenging) assay. Type of series: biochemical. As to conditions: for Antioxidant IC50 / IC50: DPPH; for Antioxidant IC50: 550 nm, samples 100 to 0.7 µg/ml; for IC50: value in brackets. The procedure:
Following the procedures as described by DuToit et al. (2001) for each sample, a dilution series (8 dilutions) was prepared in a 96 well plate by adding distilled water as a dilution medium. […] Each concentration was tested in triplicates. Vitamin C was used as a positive control. The radical scavenging capacities of the samples were determined using a BIOTEK plate reader to measure the disappearance of DPPH at 550 nm. The radical scavenging activity was measured in terms of the amount of antioxidants necessary to decrease the initial DPPH absorbance by 50% (IC50). The IC50 value of each sample was determined graphically by plotting the absorbance of DPPH as a function of the sample concentration in μg/ml. The IC50 is the amount of antioxidant necessary to decrease the initial DPPH absorbance by 50%. The results were calculated using the following equation: AA% = {Absblank(Abssample-Abscontrol)/Absblank} × 100 [formula] The mg vitamin C equivalents/g dry weight of potent samples was calculated as follows: […]) = (IC50(vitc)/IC50(sample)) × 1000. [formula]

Series [2] has as its system Propionibacterium acnes (ATCC 11827). Briefly: Antibacterial bioassay, MIC by broth microdilution (INT colour change). The note with it: Cutibacterium acnes, ATCC11827, 72 h, read-out: Antibacterial MIC.
Method: Briefly, the bacteria was cultured from a Kwik-Stick on nutrient agar and incubated at 37°C for 72 h under anaerobic conditions before the assay. The 72 h culture of the bacteria was dissolved in nutrient broth and the suspension was adjusted to 0.5 McFarland standard turbidity. […] In a sterile 96-well plate, 100 µl of samples from the stock solution consisting of the plant extract/ isolated compounds (2 mg/ml in 10% dimethyl sulphoxide (DMSO)) and the positive control tetracycline (0.2 mg/ml) was diluted with broth. […] The bacterial suspension (100 µl) was added to the wells. […] The plates were incubated at 37°C for 72 h in an anaerobic environment.
For series [3] the following is noted: constituent of Viburnum jucundum (Rios et al., 2001); cited from earlier work.
The nature of series [4]: In vitro cytotoxicity assay (XTT). The note with it: mouse; for CC50: b16-f10 cells.
Method: (§1) The mouse melanocytes (B16-F10) cells were cultured in a complete Minimum Essential Eagle's Medium (MEM) whereas the human U937 cells were cultured in Roswell Park Memorial Institute (RPMI) containing 10% fetal bovine serum (FBS) and 1% gentamycin. B16-F10 (10^5 cells per well) and U937 (10^6 cells per well) were seeded into a 96-well plate. […] The plate was then incubated at 37°C in 5% CO2, and a humidified atmosphere after which the toxicity effects of the extracts was assayed using the XTT (sodium 3'-[1-(phenyl amino-carbonyl)-3,4-tetrazolium]-bis-[4-methoxy-6-nitrobenzene sulfonic acid hydrate) cytotoxicity assay. […] By referring to the control (medium with DMSO), the cell survival rate was assessed.
Series [5] can be described thus: In vitro cytotoxicity assay (XTT). The note with it: human; for CC50: u937 cells.
Method: as §1
The subject of series [6] is skin cancer cells (SL-MEL-2). As to conditions: Sung et al., 1999; cited from earlier work.
A further series relates to CNS cancer cells (XF498). As to conditions: Sung et al., 1999; cited from earlier work.
The test system of series [7] is colorectal cancer cells (HCT15). As to conditions: Sung et al., 1999; cited from earlier work.
The test system of another series is MAC tumour cells. As to conditions: Woldemariam et al. (1992); cited from earlier work.
The subject of a further series is U937 human macrophage. Briefly: In vitro cytotoxicity assay (XTT). As to conditions: XTT.
Another series concerns P. acnes. Briefly: Transmission electron microscopy (TEM) of treated bacteria. As to conditions: 50 µg/ml, 72 h.
A further series has as its system IL-8. Briefly: Cytokine production (ELISA) in U937 cells co-cultured with heat-killed P. acnes. Type of series: cell-based, human. The note with it: U937 cells infected with P. acnes (Fig 3b). For orientation: In an ELISA, binding on a coated surface is turned into a signal by an enzyme label.
For a further series, the system named is TNF a. The description is as above. Type of series: cell-based, human. As to conditions: 100 and 50 µg/ml, U937 cells infected with P. acnes (Fig 3b). As for the experimental part:
The effect of plant extract on cytokine production (IL 8 and TNF a) was evaluated using enzyme immunoassay kits (ELIZA) using method as described previously (Tsai et al., 2010). Briefly, the log phase culture of P.acnes was harvested, washed three times with phosphate buffer saline (PBS), and incubated at 80°C for 30 min to kill the bacteria. The heat-killed bacteria were stored at 4°C until use. The human U937 cells were seeded at 10^6 cells per well in a 24-well plate and was stimulated with heat killed P. acnes (wet weight 100 µg/ml) alone and in combination with the different test samples. Pentoxifylline was used as a control. After 18 h incubation, the cell-free supernatants were collected and the concentrations of IL 8 and TNF a were analysed. Cytokine standards were serially diluted to facilitate the construction of calibration curves necessary for determining protein concentration of test samples.

These results are taken from patent EP2879647B1, “SKIN CARE” (University of Pretoria, priority 2012, dated 2014).

In brackets after ≈: the same amount, converted by molar mass. Several values for one entry are separate records, joined by “and”; a condition that tells them apart may be missing. Identical values can stand only once. *1 amine or outer side, *2 acyl side, *3 side chain or, on linkers, in order; H or OH if unused. Where a SMILES comes first, the peptide text is derived from it. Bridges are numbered along the chain shown (N, C = ends). Roman numbers before positions name the chains, in order. [ ]: non-standard residue; d: D form. Actinocin(9to1) = Cc1c2oc3c(C)ccc(C(=O)[*:1])c3nc-2c(C(=O)[*:2])c(N)c1=O; NMeV = CN[C@H](C(=O)O)C(C)C; Sar = CNCC(=O)O A value given as a limit tells only on which side of the number the result lay.

A word on the MIC: it is the least concentration at which growth counts as inhibited. The term EC50 denotes the concentration that produces a half-maximal response. The term viability denotes the share of living cells, or the viability signal relative to a control. Low readings indicate more harm to the cells, high ones less harm to the cells. By IC50 is commonly meant the concentration that inhibits the measured activity by half. Usually CC50 stands for the concentration that lowers cell viability or growth by half. The low end stands for greater toxicity to the cells, the high end for lower toxicity to the cells.

Method for U937 human macrophage: as §1

As for `CC(=O)OC/C=C(\C)CCC[C@H](C)CCC[C@H](C)CCCC(C)C` [Compound C1, phytol acetate], the “Antioxidant IC50” value in series [1] was greater than 100 µg/mL. Moreover, the MIC in series [2] was greater than 500 µg/mL.

`CCCCCCCCCCCCCCCCCCCCCCCCCCCCCCO` [Compound C2, triacontanol]: the “Antioxidant IC50” value in series [1] was greater than 100 µg/mL. Moreover, the toxicity result in series [3] is given as “non toxic”. In [4], the EC50 is greater than 100 µg/mL and the viability at 100 µg/ml was found to be 100%. Also, in series [5], the EC50 was greater than 100 µg/mL and the viability at 100 µg/ml amounted to 100%. Further, the minimal inhibitory concentration (MIC) in [2] was greater than 500 µg/mL.

As for `C/C(=C\CO)CCC[C@H](C)CCC[C@H](C)CCCC(C)C` [Compound C3, phytol], in [1], the “Antioxidant IC50” value is greater than 100 µg/mL. The “toxicity against skin cancer cells (SL-MEL-2)” value in series [6] was “mild toxicity”. Besides, the “toxicity against CNS cancer cells (XF498)” value in the series with CNS cancer cells (XF498) is given as “mild toxicity”. Also, in series [7], the “toxicity against colorectal cancer cells (HCT15)” value was “mild toxicity”. In series [4], this compound yielded a 50% effective concentration (EC50) greater than 100 µg/mL and a viability at 100 µg/ml of 100%. For the same compound, in series [5], the half-maximal effective concentration (EC50) was greater than 100 µg/mL and the viability at 100 µg/ml is 100%. The MIC in series [2] was greater than 500 µg/mL.

Regarding `COc1c(C)c(O)c(Cc2c(O)c(C)c(OC)c(C(=O)C(C)C)c2O)c(O)c1C(=O)C(C)C` [Compound C4, alpha kosin], in series [1] ((IC50 vit C / IC50 sample) x 1000), the “mg vitamin C equivalents/g dry weight” value is 392 mg vitamin C equivalents/g dry weight. For the same compound, in series [1], the “Antioxidant IC50” value is 5.05 µg/mL and the midpoint of inhibition, the IC50, lay at 10.5 µM. For the same compound, the “cytotoxic effects against MAC tumour cells” value with MAC tumour cells was “strong cytotoxic effects”. This compound also returned a CC50 in series [4] of less than 3.12 µg/mL. Also, the CC50 in series [5] was less than 3.12 µg/mL. The “Cytotoxicity EC50 U937 human macrophage” value in the series with U937 human macrophage is less than 3.12 µg/mL. The “cell injuries to P. acnes (TEM micrograph)” value in the series on P. acnes is “significant damage to P. acnes”. Further, the MIC in series [2] is 1.9 µg/mL and 2.1 µM.

For `Cc1c2oc3c(C)ccc(C(=O)N[C@@H]4C(=O)N[C@H](C(C)C)C(=O)N5CCC[C@H]5C(=O)N(C)CC(=O)N(C)[C@@H](C(C)C)C(=O)O[C@@H]4C)c3nc-2c(C(=O)N[C@@H]2C(=O)N[C@H](C(C)C)C(=O)N3CCC[C@H]3C(=O)N(C)CC(=O)N(C)[C@@H](C(C)C)C(=O)O[C@@H]2C)c(N)c1=O` [actinomycin D, reference compound] (I: T[dV]P[Sar][NMeV] / II: T[dV]P[Sar][NMeV]; ester I:1-I:C, II:1-II:C; linker I:N-II:N via Actinocin(9to1)), the CC50 in [4] and in series [5] was 0.0045 µg/mL (≈ 0.00358 µM) throughout.

As for `CC(=O)CCCCn1c(=O)c2c(ncn2C)n(C)c1=O` [pentoxifylline], the IL-8 concentration entry in the series on IL-8 was “no change”. In addition, the “inhibition of TNF a” value in the series with TNF a is listed as “Significant inhibition”.

On to `CN(C)[C@@H]1C(O)=C(C(N)=O)C(=O)[C@@]2(O)C(O)=C3C(=O)c4c(O)cccc4[C@@](C)(O)[C@H]3C[C@@H]12` [tetracycline, reference compound], for which the MIC in [2] is 3.1 µg/mL and 7 µM.

Turning to `O=C1O[C@H]([C@@H](O)CO)C(O)=C1O` [vitamin C, reference compound], in series [1], the “Antioxidant IC50” value turned out to be 1.98 µg/mL and half-maximal inhibition (IC50) required 11.3 µM.
